In data set [1] the test system is laccase. In words: Laccase mediator system (LMS) with oxycodone: oxygen concentration measurement. The data set is classed as biochemical. Conditions: mediator 2 mM, 10 units laccase ml^-1, 1000 mgL^-1 oxycodone. Here is the method: During the reaction oxygen acts as electron acceptor and is reduced to water by laccases while the mediators are oxidized. The concentration of oxygen was measured as described above. Oxygen is consumed until the mediator is fully oxidized. […] The second step of the reaction is initiated by addition of the target substrate, which is consequently oxidized by the mediators.
In the present experiments the final reaction mixtures contained 0.2 to 6 mM mediator, 1-10 units of laccase per ml and 100-3000 mg L^−1 opioid.
The different mediators were used at concentrations of 2 mM with 10 units laccase ml^−1 and 1000 mgL^−1 oxycodone.

For data set [2], the system named is laccase. In words: Laccase mediator system (LMS) with oxycodone: HPLC-MS/TOF measurement. Conditions: mediator 2 mM.
For data set [3], the target named is T1, pepsin (Sus scrofa, UniProt P00791).
T1 construct: purchased Sigma-Aldrich (US) P7000
T1 sequence (P00791 60-385): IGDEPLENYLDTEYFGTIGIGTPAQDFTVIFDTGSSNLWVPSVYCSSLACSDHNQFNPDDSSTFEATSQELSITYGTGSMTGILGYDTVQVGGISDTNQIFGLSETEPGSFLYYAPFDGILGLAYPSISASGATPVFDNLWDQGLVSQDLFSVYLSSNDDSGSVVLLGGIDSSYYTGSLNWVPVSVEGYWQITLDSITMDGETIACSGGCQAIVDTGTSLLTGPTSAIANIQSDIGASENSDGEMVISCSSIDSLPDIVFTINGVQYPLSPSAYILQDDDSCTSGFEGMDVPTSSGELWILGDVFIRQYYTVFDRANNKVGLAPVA
In words: Pepsin digestion assay in simulated gastric fluid (SGF) with SDS-PAGE analysis. Conditions: 37° C. The data set is classed as in vitro ADME. Here is the method: SGF contains 0.084 M HCl, 0.035 M NaCl, 4000 U of pepsin per reaction mixture and has a pH level of 1.2 according to the United States Pharmacopeia (1995). A ratio of 10000 Units of pepsin activity to 1 mg of test protein was used throughout the assay, which is based on an evaluation of the average activity of pepsin recommended in the United States Pharmacopeia (24th edition, 2000) with some modifications. Pepsin (ref. # P7000) was purchased from Sigma-Aldrich (US). All proteins that were used were dissolved in 50 mM Tris-HCl (pH 9.5) at a concentration of 5 mg mL^−1. The reaction mixture contained 1.52 mL of SGF preheated to 37° C. before the addition of 0.08 mL of protein solution (Thomas et al., 2004). The mixture was placed into a thermomixer at 37° C. and was shaken at 400 rpm. For denaturating SDS-polyacrylamide gel electrophoresis (SDS-PAGE) analysis samples of 160 μl were removed at 0 minutes, 0.5 minutes, and 15 minutes after initiation.
SDS-PAGE was performed to analyze and visually inspect stained protein bands whether the protein band is still intact or fragmented after the digestion assay. […]
Each 160 μl of the digestion samples was quenched by […] of 200 mM NaHCO3 as neutralization step and 56 μl 4× Laemmli (Laemmli 1970) buffer for electrophoresis. Samples were immediately heated up to 99° C. for 10 minutes and analyzed directly or stored at −20° C. […]

With `CCOc1cc(C=O)ccc1O` [ethylvanillin], the “oxygen concentration after the addition of oxycodone (oxidation of oxycodone)” value (“oxygen concentration after the addition” below) in data set [1] is recorded as “drop in oxygen concentration”. On to `O=C(O)c1cc(O)c(O)c(O)c1` [gallic acid], for which the “oxygen concentration after the addition” value in data set [1] is on record as “no apparent effect”. The “effect of mediator on oxycodone (MS-TOF analysis)” value in data set [2] is “no apparent effect”.

As for `COc1cc(C(=O)O)cc(OC)c1O` [syringic acid], the “oxygen concentration after the addition” value in data set [1] is reported as “drop in oxygen concentration”. On the same count and under the same terms, under `COc1cc(C=O)ccc1O` [vanillin] stands “drop in oxygen concentration”. As for “HRP: horseradish peroxidase (EC 1.11.1.7)”, the proteolytic degradation result in data set [3] (SGF pH 1.2, pepsin 10000 Units per mg test protein, samples at 0, 0.5, 15 minutes, SDS-PAGE) was “very susceptible to proteolytic degradation”. Moreover, the “protein band on SDS-PAGE after pepsin digestion” value in data set [3] (SGF pH 1.2, pepsin) is recorded as “vanished within seconds”.

The values above are taken from patent US10702607B2, “Abuse-deterrent pharmaceutical compositions” (priority 2016, dated 2020).
